Columns and labels:
[1] = test system: Mapk, Akt, and Rps6ka1 kinases; type: cell-based; settings: MCF 10A cells treated with EGF or lapatinib vs DMSO; Western blotting and KAYAK
Tp53rk = molecular target: T1, Tp53rk (Homo sapiens, UniProt Q96S44); test: AAP protein-level capture with TMT, staurosporine competition in HeLa lysate; type: binding
T1 sequence (Q96S44 1-253): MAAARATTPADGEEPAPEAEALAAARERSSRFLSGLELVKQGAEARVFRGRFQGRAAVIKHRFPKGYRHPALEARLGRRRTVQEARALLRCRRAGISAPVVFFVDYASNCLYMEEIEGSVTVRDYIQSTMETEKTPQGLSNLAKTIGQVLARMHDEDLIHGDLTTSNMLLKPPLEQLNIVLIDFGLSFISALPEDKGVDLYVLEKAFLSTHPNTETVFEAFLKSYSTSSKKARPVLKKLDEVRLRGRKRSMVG

Row | Compound | activation of Mapk, Akt, and Rps6ka1 kinases [1] | IC50 (Tp53rk)
1 | CS(=O)(=O)CCNCc1ccc(-c2ccc3ncnc(Nc4ccc(OCc5cccc(F)c5)c(Cl)c4)c3c2)o1 [lapatinib] | inhibition when lapatinib was present | –
2 | EGF: stimulates EGFR and numerous downstream kinases | substantial activation | –
3 | CN[C@@H]1C[C@H]2O[C@@](C)([C@@H]1OC)n1c3ccccc3c3c4c(c5c6ccccc6n2c5c31)C(=O)NC4 [staurosporine] | – | 73 µM

— PMC3771683 (Analytical chemistry, 2013)
